Results from US11267861B2, “Peptide-oligourea foldamer compounds and methods of their use” (UREKA SARL, priority 2016, dated 2022).
Numbered stars: 1 amine (or outer) side, 2 acyl side, 3 side chain; on linkers, the order of the positions; unused ones are H or OH. Peptide text beside a SMILES is read from it. * marks the point of attachment. X3 = O=C(O)[C@@H]1CCCN1C(=O)NC[C@H](CO)N*; X5 = C[C@@H](O)[C@H](N)CN*; CO = O=C([*:1])[*:2]

Columns and labels:
[1] = molecular target: T1, Carboxypeptidase A (EC 3.4.17.1) (Bos taurus, UniProt P00730); assay: Enzymatic degradation by carboxypeptidase A; format: in vitro ADME, bovine; settings: same results = more stable than the native peptides
T1 construct: from bovine pancreas (Fluka), milky suspension; purchased Fluka; host or cells: bovine pancreas
T1 sequence (P00730 111-419): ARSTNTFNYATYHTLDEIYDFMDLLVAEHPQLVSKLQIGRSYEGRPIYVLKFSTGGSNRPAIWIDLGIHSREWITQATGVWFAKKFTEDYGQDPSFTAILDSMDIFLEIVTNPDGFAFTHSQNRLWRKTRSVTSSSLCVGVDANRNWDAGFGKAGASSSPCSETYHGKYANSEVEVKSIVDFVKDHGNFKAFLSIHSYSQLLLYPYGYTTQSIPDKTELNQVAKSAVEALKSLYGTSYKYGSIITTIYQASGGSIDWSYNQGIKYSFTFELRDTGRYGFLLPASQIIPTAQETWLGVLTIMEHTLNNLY
Method: Enzymatic Degradation—Carboxypeptidase A. Carboxypeptidase A (EC 3.4.17.1) from bovine pancreas (Fluka), milky suspension, stock solution in PBS buffer (pH 7.5, 0.01 M). For each degradation experiment, stock solutions of the peptidic substrate and the enzyme were made using phosphate-buffered saline (PBS) buffer solution. The enzyme concentrations of the stock solutions were selected such that the standard substrates were totally degraded after a maximum of 15 min (ratio 2[enzyme]:100[substrate]). PBS buffer solution (10 mM sodium phosphate, 0.14 M NaCl) was prepared as follows: Solution A (4.75 mL of 0.2 M NaH2PO4.H2O), solution B (20.25 mL of 0.2 M Na2HPO4.H2O), NaCl (4.5 g) and H2O (25 mL) were stirred for 15 min at room temperature and diluted tenfold with H2O. The pH was adjusted either with NaOH (1 M) or with HCl (1 M) prior to use. A solution of the substrate in PBS buffer (pH 7.5, 0.01 M) and a solution of the required amount of enzyme, were mixed and incubated at 25° C. for 4 hours. Degradation was stopped with concentrated AcOH, and buffer solution was added so that the total volume reached 150 μL.
The resulting mixture was analyzed by reversed-phase HPLC. A mixture of CH3CN/H2O (0.1% TFA) was used as eluent. Gradients were 10% CH3CN to 100% CH3CN in 10 minutes. The flow rate, for all separations, was 1 mL·min^−1.

mouse GLP-1 receptor = molecular target: T2, mouse GLP-1 receptor (Mus musculus, UniProt O35659); assay: GLP-1 functional assay: agonist activity by cAMP production (HTRF) in βTC6 cells; format: cell-based
T2 construct: mouse GLP-1 receptor endogenously expressed in βTC6 cells; endogenous in cells; host or cells: βTC6 cells
T2 sequence (O35659 22-463): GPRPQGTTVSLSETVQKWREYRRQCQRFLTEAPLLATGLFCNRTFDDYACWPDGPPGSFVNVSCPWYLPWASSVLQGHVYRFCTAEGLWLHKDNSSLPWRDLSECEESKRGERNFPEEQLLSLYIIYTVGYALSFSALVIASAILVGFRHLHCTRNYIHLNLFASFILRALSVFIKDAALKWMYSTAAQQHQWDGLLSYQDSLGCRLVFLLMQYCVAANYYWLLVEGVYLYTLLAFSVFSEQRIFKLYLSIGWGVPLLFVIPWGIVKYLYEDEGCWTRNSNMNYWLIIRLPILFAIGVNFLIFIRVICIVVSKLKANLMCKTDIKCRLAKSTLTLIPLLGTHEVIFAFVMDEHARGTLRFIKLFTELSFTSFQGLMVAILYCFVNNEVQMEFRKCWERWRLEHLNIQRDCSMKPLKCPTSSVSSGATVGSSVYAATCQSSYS
Method: For stimulated control measurement, separate assay wells contain 10 nM GLP-1(7-37) were utilized.
Following incubation, the cells were lysed and the fluorescence acceptor (D2-labeled cAMP) and fluorescence donor (anti-cAMP antibody labeled with europium cryptate) were added. […] The results are expressed as a percent of the control response to 10 nM GLP-1(7-37). The standard reference agonist is GLP-1(7-37), which was tested in each experiment at several concentrations to generate a concentration-response curve from which its EC50 value was calculated.
(§1) HTRF (Homogeneous Time-Resolved Fluorescence) principle. The HTRF technology is based on time resolved fluorescence energy transfer (TR-FRET), which occurs between long-lived fluorophore Europium or Terbium Cryptates, and EuK or Tb respectively, as a donor and the allophycocyanin XL665, d2 or Red as acceptor. Many compounds and proteins present in biological fluids or serum are naturally fluorescent, and the use of conventional, prompt fluorescence leads to serious limitations in assay sensitivity. The use of long-lived fluorophore combined with time-resolved detection (a delay between excitation and emission detection) minimizes prompt fluorescence interference.

chymotrypsin = assay: Enzymatic degradation by chymotrypsin; format: in vitro ADME; settings: compared to native peptide GLP-1 (SEQ ID NO: 1)
Method: Enzymatic Degradation—Chymotrypsin and Trypsin. Stock solutions of the compounds were prepared at a concentration of 400 μM in a solution of 50 mM HEPES buffer, 50 mM NaCl, 0.05% Tween-80, pH 8.0. Stock solution of the chymotrypsin or trypsin was prepared at a concentration of 250 μg/mL in water. Stability of compounds to chymotrypsin was assessed by conducting a protease reaction in a 96-well plates at room temperature. Each well received 10 μL of HEPES buffer, 38 μL of the solution of compound to be assayed (final concentration 304 μmol/L), and 2 μL of the enzyme solution (final concentration 10 μg/mL) for a total volume of 50 μL. Each compound was also incubated in the absence of the enzyme (12 μL of HEPES buffer and 38 μL of the compound).
At the indicated time (5, 10, 15, 30 and 60 minute(s)) a 10 μL aliquot was removed from each experimental reaction and pipet into 100 μL of 1% TFA solution to quench the reaction (t=0 minutes was determined using the reaction without enzyme). A portion of the quenched reaction solution was analyzed by HPLC. The time course of peptide degradation was determined by integrating the area of each peak in a series of HPLC traces. Another portion of the quenched reaction was analyzed by LC-MS for identification of each peptide fragment.

MDMX = molecular target: T3, MDMX (Homo sapiens, UniProt O15151); assay: MDMX/p53 interaction HTRF assay; format: biochemical
T3 construct: GI:88702790)
T3 sequence (O15151 1-174): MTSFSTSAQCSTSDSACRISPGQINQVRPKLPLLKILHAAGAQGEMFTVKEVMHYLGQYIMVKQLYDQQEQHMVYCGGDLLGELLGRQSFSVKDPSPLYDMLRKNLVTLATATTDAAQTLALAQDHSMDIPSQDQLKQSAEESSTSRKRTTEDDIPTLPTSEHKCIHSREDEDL
Method: (§2) Functional Assay to Examine Bioactivity of MDM2 and MDMX Antagonists. The compounds were received dissolved in 100% DMSO at a final concentration of 10 mM and frozen. After complete defrosting and sonication, all compounds were diluted in 100% DMSO at both 0.4 mM, 0.04 and 0.004 mM, and distributed into two 96-well compounds daughter plates (Table 2).
(§3) Each compound was evaluated in duplicate on both (MDM2 or MDMX)/p53 interaction and on a positive TR-FRET control protein in a 384-well reaction plate. […] The reference compound Nutlin-3 is integrated in the compound daughter plate and was used under the same conditions.
as §1, with “interference. […]” for “interference.”

MDM2 = molecular target: T4, MDM2 (Homo sapiens, UniProt Q00987); assay: MDM2/p53 interaction HTRF assay; format: biochemical
T4 construct: GST-Flag-Mdm2 (AA1-188; GI:4505136)
Method: as §2, §3
as §1, with “interference. […]” for “interference.”

T4 sequence (Q00987 1-188): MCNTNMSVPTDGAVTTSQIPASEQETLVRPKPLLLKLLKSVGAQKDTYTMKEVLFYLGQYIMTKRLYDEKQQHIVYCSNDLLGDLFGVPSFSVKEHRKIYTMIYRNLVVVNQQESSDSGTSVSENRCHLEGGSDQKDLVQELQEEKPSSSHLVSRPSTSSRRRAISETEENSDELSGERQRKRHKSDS

Structure (SMILES) | stability with carboxipeptidase A compared to native peptides [1] | EC50 (mouse GLP-1 receptor) [nM] | half-life in the chymotrypsin degradation test compared to native peptide (chymotrypsin) | EC50 (MDMX) [nM] | EC50 (MDM2) [nM]
CC[C@H](C)[C@H](NC(=O)[C@H](Cc1ccccc1)NC(=O)[C@H](CCC(=O)O)NC(=O)[C@H](CCCCN)NC(=O)[C@H](C)NC(=O)[C@H](C)NC(=O)[C@H](CCC(N)=O)NC(=O)CNC(=O)[C@H](CCC(=O)O)NC(=O)[C@H](CC(C)C)NC(=O)[C@H](Cc1ccc(O)cc1)NC(=O)[C@H](CO)NC(=O)[C@H](CO)NC(=O)[C@@H](NC(=O)[C@H](CC(=O)O)NC(=O)[C@H](CO)NC(=O)[C@@H](NC(=O)[C@H](Cc1ccccc1)NC(=O)[C@@H](NC(=O)CNC(=O)[C@H](CCC(=O)O)NC(=O)[C@H](C)NC(=O)[C@@H](N)Cc1c[nH]cn1)[C@@H](C)O)[C@@H](C)O)C(C)C)C(=O)N[C@@H](C)C(=O)N[C@H](CNC(=O)N[C@@H](CC(C)C)C(=O)N[C@H](C(=O)N[C@@H](CCCCN)C(=O)NCC(=O)N[C@@H](CCCNC(=N)N)C(=O)NCC(=O)O)C(C)C)Cc1c[nH]c2ccccc12 [Compound 4] | same results | 0.26 | longer half-life |  | 
CC(C)C[C@H](NC(=O)[C@H](C)NC(=O)[C@H](Cc1c[nH]c2ccccc12)NC(=O)[C@H](Cc1ccc(O)cc1)NC(=O)[C@H](CCC(=O)O)NC(=O)[C@H](C)NC(=O)[C@H](Cc1ccccc1)NC(=O)[C@H](CO)NC(=O)NC[C@@H](N)[C@@H](C)O)C(=O)N[C@@H](CC(C)C)C(=O)N[C@@H](CO)CNC(=O)N1CCC[C@H]1C(=O)O [Compound 23] ({X5-CO}-SFAEYWALL-X3; N-terminus and C-terminus assumed) |  |  |  | 6.3 | 0.75
